Test results from US20200061047A1, “NEW USE OF RIFAMYCIN-QUINOLIZIDONE DUAL-ACTION MOLECULE” (TenNor Therapeutics Limited, priority 2017, published 2020).
Converted amounts (≈) assume the structure as drawn. Like-named read-outs stand apart in the source and are kept apart here.

Experiments:
Assay type in all cases: cell-based
[1] = system: Bifidobacterium infantis subsp. Infantis ATCC 15702; assay: MIC, agar dilution drug sensitivity test; conditions: ATCC15702, Table 1
[2] = system: Bacteroides bifidum ATCC 1569; assay: MIC, agar dilution drug sensitivity test; conditions: ATCC1569, Table 1
[3] = system: Clostridium difficile ATCC 700057; assay: MIC, agar dilution drug sensitivity test; conditions: Clostridioides difficile, ATCC700057
[4] = system: Clostridium perfringens ATCC 13124; assay: microbe, parasite or virus in culture; conditions: ATCC13124
[5] = system: Eggerthella lenta ATCC 43055; assay: MIC, agar dilution drug sensitivity test; conditions: ATCC43055, Table 1
[6] = system: Fusobacterium necrophorum ATCC 25286; assay: MIC, agar dilution drug sensitivity test; conditions: ATCC25286, Table 1
[7] = system: Peptostreptococcus prevotii ATCC 9321; assay: MIC, agar dilution drug sensitivity test; conditions: Anaerococcus prevotii, ATCC9321, Table 1
[8] = system: Bordetella avium ATCC 6945; assay: MIC, agar dilution drug sensitivity test
[9] = system: Serratia marcescens ATCC 43862; assay: MIC, agar dilution drug sensitivity test
[10] = system: Proteus vulgaris ATCC 1331; assay: MIC, agar dilution drug sensitivity test
[11] = system: Enterobacter aerogenes ATCC 13048; assay: MIC, agar dilution drug sensitivity test
[12] = system: Haemophilus influenzae ATCC 49247; assay: MIC, microscale broth dilution drug sensitivity test
Method: (§1) In this embodiment, compound I-rifamycin-quinolizidone dual-action molecule is used in a drug sensitivity test on pathogenic bacteria associated with hepatic encephalopathy, the pathogenic bacteria including the above ammonia-producing bacteria. Except that Haemophilus is tested using the microscale broth dilution method, all the other bacteria are tested using the agar dilution method consistent with that in the Guideline of the Clinical and Laboratory Standards Institute (CLSI; 1-3). All the other drug susceptibility tests are performed under anaerobic conditions except that some selective isolates are tested under both aerobic and anaerobic conditions. Control compounds include metronidazole, rifampicin, clindamycin (under anaerobic conditions) and ciprofloxacin (under aerobic and anaerobic conditions). The tested clinical isolates may be reference strains obtained from American Type Culture Collection, ATCC, Manassas, Va. After being received, the strains are respectively inoculated on appropriate agar plates and placed under optimized conditions for growth. The growing strains are cloned in the broth containing cryoprotectant to prepare bacterial suspensions, and the bacterial suspensions are subpackaged and then stored in freezing at −80° C. Before test, the frozen bacteria are inoculated into appropriate agar dishes and cultured for growth. Anaerobic bacteria grow for 48 hours at 35° C. in a Bactron II oxygen-free cabinet (Shel Lab, Cornelius, Oreg.) before test. Haemophilus Test Medium (HTM, Teknova, Hollister, Calif.; Art. No.: 895120) is used to perform drug sensitivity test on Hemophilus using the microscale broth dilution method under aerobic and anaerobic conditions. Preparation and storage of all the above broths are performed in accordance with CLSI (1-3).

[13] = system: Haemophilus parainfluenzae ATCC 49247; assay: as above; conditions: ATCC49247
Method: as §1

[14] = system: Streptococcus parasanguinis MMX 5671; assay: MIC, agar dilution drug sensitivity test
[15] = system: Streptococcus salivarius ATCC 25975; assay: MIC, agar dilution drug sensitivity test
[16] = system: Streptococcus pneumoniae ATCC 49619; assay: MIC, agar dilution drug sensitivity test
[17] = system: Actinomyces naeslundii JMI 534283; assay: MIC, agar dilution drug sensitivity test; conditions: JMI534283, Aerobic
[18] = system: Alcaligenes faecalis JMI 940880; assay: MIC, agar dilution drug sensitivity test; conditions: JMI940880, Aerobic
[19] = system: Bacteroides vulgatus JMI 927011; assay: MIC, agar dilution drug sensitivity test; conditions: Phocaeicola vulgatus, JMI927011
[20] = system: Corynebacterium urealyticum JMI 2015_30; assay: MIC, agar dilution drug sensitivity test; conditions: Aerobic
[21] = system: Staphylococcus saprophyticus JMI 2016_703; assay: MIC, agar dilution drug sensitivity test; conditions: Aerobic
[22] = system: Escherichia coli ATCC 25922; assay: MIC, agar dilution drug sensitivity test; conditions: ATCC25922, Table 1
[23] = system: Helicobacter pylori ATCC 700824; assay: MIC, agar dilution drug sensitivity test; conditions: ATCC700824, Table 1
[24] = system: Lactobacillus salivarius JMI 941623; assay: MIC, agar dilution drug sensitivity test; conditions: Ligilactobacillus salivarius, JMI941623, Table 1
[25] = system: Klebsiella oxytoca JMI 933995; assay: MIC, agar dilution drug sensitivity test; conditions: JMI933995, Table 1
[26] = system: Morganella morganii MMX 6123; assay: MIC, agar dilution drug sensitivity test; conditions: MMX6123, Table 1
[27] = system: Proteus mirabilis JMI 933599; assay: MIC, agar dilution drug sensitivity test; conditions: JMI933599, Table 1
[28] = system: Proteus vulgaris MMX 6454; assay: MIC, agar dilution drug sensitivity test; conditions: MMX6454, Table 1
[29] = system: Salmonella spp ATCC 35987; assay: MIC, agar dilution drug sensitivity test; conditions: ATCC35987, Table 1
Method: In this embodiment, compound I-rifamycin-quinolizidone dual-action molecule is used in a drug sensitivity test on pathogenic bacteria associated with hepatic encephalopathy, the pathogenic bacteria including the above ammonia-producing bacteria. Except that Haemophilus is tested using the microscale broth dilution method, all the other bacteria are tested using the agar dilution method consistent with that in the Guideline of the Clinical and Laboratory Standards Institute (CLSI; 1-3). All the other drug susceptibility tests are performed under anaerobic conditions except that some selective isolates are tested under both aerobic and anaerobic conditions. Control compounds include metronidazole, rifampicin, clindamycin (under anaerobic conditions) and ciprofloxacin (under aerobic and anaerobic conditions).
The tested clinical isolates may be reference strains obtained from American Type Culture Collection, ATCC, Manassas, Va. After being received, the strains are respectively inoculated on appropriate agar plates and placed under optimized conditions for growth. The growing strains are cloned in the broth containing cryoprotectant to prepare bacterial suspensions, and the bacterial suspensions are subpackaged and then stored in freezing at −80° C. Before test, the frozen bacteria are inoculated into appropriate agar dishes and cultured for growth. Anaerobic bacteria grow for 48 hours at 35° C. in a Bactron II oxygen-free cabinet (Shel Lab, Cornelius, Oreg.) before test. […]
The Minimum Inhibitory Concentration (MIC) is determined using the agar dilution method.
The MIC values of all microorganisms except Haemophilus are determined using the agar dilution method in the CLSI (1-2). […] After culturing, the MIC is determined in accordance with the CLSI guideline (1-2).

[30] = system: Yersinia enterocolitica ATCC 23715; assay: MIC, agar dilution drug sensitivity test; conditions: ATCC23715, Table 1
[31] = ATCC49247, Haemophilus influenzae ATCC 49247, Aerobic
[32] = ATCC49247, Haemophilus influenzae ATCC 49247, Anaerobic

Structure (SMILES): Cc1ncc([N+](=O)[O-])n1CCO [Metronidazole, metronidazole]
- MIC [1]: 16 µg/mL (≈ 93.5 µM)
- MIC [2]: 8 µg/mL (≈ 46.7 µM)
- MIC [3]: 0.5 µg/mL (≈ 2.92 µM)
- MIC [4]: 2 µg/mL (≈ 11.7 µM)
- MIC [5]: 1 µg/mL (≈ 5.84 µM)
- MIC [6]: 0.12 µg/mL (≈ 0.701 µM)
- MIC [7]: 256 µg/mL (≈ 1500 µM)
- MIC ([8]; Bordetella avium ATCC 6945, Anaerobic): >256 µg/mL
- MIC ([8]; Bordetella avium, ATCC6945): > 256 µg/mL
- MIC ([9]; Serratia marcescens ATCC 43862, Anaerobic): >256 µg/mL
- MIC ([9]; Serratia marcescens, ATCC43862): > 256 µg/mL
- MIC ([10]; Proteus vulgaris ATCC 1331, Anaerobic): >256 µg/mL
- MIC ([10]; Proteus vulgaris, ATCC1331): > 256 µg/mL
- MIC ([11]; Enterobacter aerogenes ATCC 13048, Anaerobic): >256 µg/mL
- MIC ([11]; Klebsiella aerogenes, ATCC13048): > 256 µg/mL
- MIC [12, 31]: 64 µg/mL (≈ 374 µM)
- MIC [12, 32]: 64 µg/mL (≈ 374 µM)
- MIC ([13]; Haemophilus parainfluenzae): 128 µg/mL (≈ 748 µM)
- MIC ([14]; Streptococcus parasanguinis MMX 5671, Anaerobic): >256 µg/mL
- MIC ([14]; Streptococcus parasanguinis, MMX5671): > 256 µg/mL
- MIC ([15]; Streptococcus salivarius ATCC 25975, Anaerobic): >256 µg/mL
- MIC ([15]; Streptococcus salivarius, ATCC25975): > 256 µg/mL
- MIC ([16]; ATCC49619, Streptococcus pneumoniae ATCC 49619, Aerobic): > 256 µg/mL
- MIC ([16]; ATCC49619, Streptococcus pneumoniae ATCC 49619, Anaerobic): 128 µg/mL (≈ 748 µM)

Structure (SMILES): CO[C@H]1/C=C/O[C@@]2(C)Oc3c(C)c(O)c4c(O)c(c(/C=N/N5CCN(C)CC5)c(O)c4c3C2=O)NC(=O)/C(C)=C\C=C\[C@H](C)[C@H](O)[C@@H](C)[C@@H](O)[C@@H](C)[C@H](OC(C)=O)[C@@H]1C [Rifampicin, rifampicin]
- MIC [17]: < 0.002 µg/mL
- MIC [18]: 16 µg/mL (≈ 19.4 µM)
- MIC [19]: 0.06 µg/mL (≈ 0.0729 µM)
- MIC ([8]; Bordetella avium, ATCC6945, Bordetella avium ATCC 6945, Aerobic, read-out: MIC): 16 µg/mL (≈ 19.4 µM)
- MIC ([8]; Bordetella avium, ATCC6945, Bordetella avium ATCC 6945, Anaerobic, read-out: MIC): 64 µg/mL (≈ 77.8 µM)
- MIC [20]: 0.004 µg/mL (≈ 0.00486 µM)
- MIC ([9]; Serratia marcescens, ATCC43862, Serratia marcescens ATCC 43862, Aerobic, read-out: MIC): 64 µg/mL (≈ 77.8 µM)
- MIC ([9]; Serratia marcescens, ATCC43862, Serratia marcescens ATCC 43862, Anaerobic, read-out: MIC): 64 µg/mL (≈ 77.8 µM)
- MIC ([10]; Proteus vulgaris, ATCC1331, Proteus vulgaris ATCC 1331, Aerobic, read-out: MIC): 16 µg/mL (≈ 19.4 µM)
- MIC ([10]; Proteus vulgaris, ATCC1331, Proteus vulgaris ATCC 1331, Anaerobic, read-out: MIC): 8 µg/mL (≈ 9.72 µM)
- MIC ([11]; Klebsiella aerogenes, ATCC13048, Enterobacter aerogenes ATCC 13048, Aerobic, read-out: MIC): 64 µg/mL (≈ 77.8 µM)
- MIC ([11]; Klebsiella aerogenes, ATCC13048, Enterobacter aerogenes ATCC 13048, Anaerobic, read-out: MIC): 64 µg/mL (≈ 77.8 µM)
- MIC [12, 31]: 0.25 to 1 µg/mL (≈ 0.304 to 1.22 µM)
- MIC [12, 32]: 0.25 µg/mL (≈ 0.304 µM)
- MIC ([13]; Haemophilus parainfluenzae ATCC 49247, Aerobic, read-out: MIC): 0.5 µg/mL (≈ 0.608 µM)
- MIC [21]: 1 µg/mL (≈ 1.22 µM)
- MIC ([14]; Streptococcus parasanguinis, MMX5671, Streptococcus parasanguinis MMX 5671, Aerobic, read-out: MIC): 0.03 µg/mL (≈ 0.0365 µM)
- MIC ([14]; Streptococcus parasanguinis, MMX5671, Streptococcus parasanguinis MMX 5671, Anaerobic, read-out: MIC): 16 µg/mL (≈ 19.4 µM)
- MIC ([15]; Streptococcus salivarius, ATCC25975, Streptococcus salivarius ATCC 25975, Aerobic, read-out: MIC): 0.03 µg/mL (≈ 0.0365 µM)
- MIC ([15]; Streptococcus salivarius, ATCC25975, Streptococcus salivarius ATCC 25975, Anaerobic, read-out: MIC): 32 µg/mL (≈ 38.9 µM)
- MIC ([16]; ATCC49619, Streptococcus pneumoniae ATCC 49619, Aerobic, read-out: MIC): 0.03 µg/mL (≈ 0.0365 µM)
- MIC ([16]; ATCC49619, Streptococcus pneumoniae ATCC 49619, Anaerobic, read-out: MIC): 0.12 µg/mL (≈ 0.146 µM)

Structure (SMILES): CO[C@H]1/C=C/O[C@@]2(C)Oc3c(C)c(O)c4c(O)c(c5c(nc6cc(C)ccn65)c4c3C2=O)NC(=O)/C(C)=C\C=C\[C@H](C)[C@H](O)[C@@H](C)[C@@H](O)[C@@H](C)[C@H](OC(C)=O)[C@@H]1C [Rifaximin, rifaximin]
- MIC [1]: 0.25 µg/mL (≈ 0.318 µM)
- MIC [2]: 0.5 µg/mL (≈ 0.636 µM)
- MIC [3]: 0.004 µg/mL (≈ 0.00509 µM)
- MIC [4]: 0.12 µg/mL (≈ 0.153 µM)
- MIC [5]: 0.12 µg/mL (≈ 0.153 µM)
- MIC [6]: 16 µg/mL (≈ 20.4 µM)
- MIC [22]: 8 µg/mL (≈ 10.2 µM)
- MIC [23]: 2 µg/mL (≈ 2.54 µM)
- MIC [24]: 1 µg/mL (≈ 1.27 µM)
- MIC [7]: 0.03 µg/mL (≈ 0.0382 µM)
- MIC [25]: 32 µg/mL (≈ 40.7 µM)
- MIC [26]: 16 µg/mL (≈ 20.4 µM)
- MIC [27]: 8 µg/mL (≈ 10.2 µM)
- MIC [28]: 4 µg/mL (≈ 5.09 µM)
- MIC [29]: 16 µg/mL (≈ 20.4 µM)
- MIC [30]: 8 µg/mL (≈ 10.2 µM)
